Activity calls are given as the source filed them.
Key:
[1] = target: T1, Caspase-3 (Homo sapiens, UniProt P42574); assay: inhibition of recombinant caspase-3 activity – biochemical, luminescence, set 2, selectivity assay for SENP protease inhibitor project, SAR follow-up (AID 588599); assay type: functional
T1 sequence (P42574 whole entry): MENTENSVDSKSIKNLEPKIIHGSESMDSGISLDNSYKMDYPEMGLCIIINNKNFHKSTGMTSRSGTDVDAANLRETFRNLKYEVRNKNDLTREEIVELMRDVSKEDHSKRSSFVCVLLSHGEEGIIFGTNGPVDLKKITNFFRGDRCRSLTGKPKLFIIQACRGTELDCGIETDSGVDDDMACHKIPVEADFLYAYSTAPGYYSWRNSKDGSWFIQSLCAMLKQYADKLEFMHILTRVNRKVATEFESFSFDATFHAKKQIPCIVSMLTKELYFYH

[2] = target: T2, Sentrin-specific protease 8 (Homo sapiens, UniProt Q96LD8); assay: inhibition of sentrin protease 8 – biochemical, luminescence, set 2, SAR follow-up (AID 588601); assay type: functional
T2 sequence (Q96LD8 whole entry): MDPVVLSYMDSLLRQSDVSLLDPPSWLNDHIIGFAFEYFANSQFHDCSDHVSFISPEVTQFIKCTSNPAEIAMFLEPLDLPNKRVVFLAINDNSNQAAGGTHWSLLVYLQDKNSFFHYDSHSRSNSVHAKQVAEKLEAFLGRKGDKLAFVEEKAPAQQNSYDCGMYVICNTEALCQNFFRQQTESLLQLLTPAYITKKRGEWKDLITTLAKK

[3] = target: T3, Sentrin-specific protease 7 (Homo sapiens, UniProt Q9BQF6); assay: inhibition of human SENP7 cleavage activity – biochemical, luminescence, set 2, SAR follow-up (AID 588600); assay type: functional
T3 sequence (Q9BQF6 whole entry): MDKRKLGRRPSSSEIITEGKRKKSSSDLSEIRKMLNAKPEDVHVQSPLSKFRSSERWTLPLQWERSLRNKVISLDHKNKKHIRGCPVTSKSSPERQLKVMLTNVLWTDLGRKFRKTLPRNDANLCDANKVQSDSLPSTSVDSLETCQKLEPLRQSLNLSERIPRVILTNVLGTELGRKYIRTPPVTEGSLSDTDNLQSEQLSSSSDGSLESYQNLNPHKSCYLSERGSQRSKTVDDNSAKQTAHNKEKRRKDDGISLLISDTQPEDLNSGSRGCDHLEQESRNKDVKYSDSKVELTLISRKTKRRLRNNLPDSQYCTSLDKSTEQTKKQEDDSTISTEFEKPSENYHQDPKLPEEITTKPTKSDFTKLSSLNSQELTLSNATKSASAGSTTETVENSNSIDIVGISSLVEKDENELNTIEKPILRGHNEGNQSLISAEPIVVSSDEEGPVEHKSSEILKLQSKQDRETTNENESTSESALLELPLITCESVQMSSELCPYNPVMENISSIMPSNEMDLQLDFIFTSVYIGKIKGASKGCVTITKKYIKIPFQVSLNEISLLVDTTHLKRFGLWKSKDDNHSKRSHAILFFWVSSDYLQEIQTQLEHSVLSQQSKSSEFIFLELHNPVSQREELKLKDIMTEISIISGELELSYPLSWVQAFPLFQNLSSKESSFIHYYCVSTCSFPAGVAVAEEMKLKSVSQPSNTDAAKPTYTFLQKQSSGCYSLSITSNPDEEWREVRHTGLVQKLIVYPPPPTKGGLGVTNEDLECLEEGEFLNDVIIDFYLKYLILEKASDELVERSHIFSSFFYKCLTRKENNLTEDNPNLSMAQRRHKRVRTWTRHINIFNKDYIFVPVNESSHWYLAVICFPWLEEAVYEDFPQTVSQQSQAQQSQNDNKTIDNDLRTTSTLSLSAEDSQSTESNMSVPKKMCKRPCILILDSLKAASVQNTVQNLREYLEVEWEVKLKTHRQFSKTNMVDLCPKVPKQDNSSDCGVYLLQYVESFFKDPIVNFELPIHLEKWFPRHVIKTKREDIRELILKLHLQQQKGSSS

[4] = target: T4, Sentrin-specific protease 6 (Homo sapiens, UniProt Q9GZR1); assay: inhibition of human SENP6 catalytic domain – biochemical, luminescence, set 2, SAR follow-up (AID 588598); assay type: functional
T4 sequence (Q9GZR1 whole entry): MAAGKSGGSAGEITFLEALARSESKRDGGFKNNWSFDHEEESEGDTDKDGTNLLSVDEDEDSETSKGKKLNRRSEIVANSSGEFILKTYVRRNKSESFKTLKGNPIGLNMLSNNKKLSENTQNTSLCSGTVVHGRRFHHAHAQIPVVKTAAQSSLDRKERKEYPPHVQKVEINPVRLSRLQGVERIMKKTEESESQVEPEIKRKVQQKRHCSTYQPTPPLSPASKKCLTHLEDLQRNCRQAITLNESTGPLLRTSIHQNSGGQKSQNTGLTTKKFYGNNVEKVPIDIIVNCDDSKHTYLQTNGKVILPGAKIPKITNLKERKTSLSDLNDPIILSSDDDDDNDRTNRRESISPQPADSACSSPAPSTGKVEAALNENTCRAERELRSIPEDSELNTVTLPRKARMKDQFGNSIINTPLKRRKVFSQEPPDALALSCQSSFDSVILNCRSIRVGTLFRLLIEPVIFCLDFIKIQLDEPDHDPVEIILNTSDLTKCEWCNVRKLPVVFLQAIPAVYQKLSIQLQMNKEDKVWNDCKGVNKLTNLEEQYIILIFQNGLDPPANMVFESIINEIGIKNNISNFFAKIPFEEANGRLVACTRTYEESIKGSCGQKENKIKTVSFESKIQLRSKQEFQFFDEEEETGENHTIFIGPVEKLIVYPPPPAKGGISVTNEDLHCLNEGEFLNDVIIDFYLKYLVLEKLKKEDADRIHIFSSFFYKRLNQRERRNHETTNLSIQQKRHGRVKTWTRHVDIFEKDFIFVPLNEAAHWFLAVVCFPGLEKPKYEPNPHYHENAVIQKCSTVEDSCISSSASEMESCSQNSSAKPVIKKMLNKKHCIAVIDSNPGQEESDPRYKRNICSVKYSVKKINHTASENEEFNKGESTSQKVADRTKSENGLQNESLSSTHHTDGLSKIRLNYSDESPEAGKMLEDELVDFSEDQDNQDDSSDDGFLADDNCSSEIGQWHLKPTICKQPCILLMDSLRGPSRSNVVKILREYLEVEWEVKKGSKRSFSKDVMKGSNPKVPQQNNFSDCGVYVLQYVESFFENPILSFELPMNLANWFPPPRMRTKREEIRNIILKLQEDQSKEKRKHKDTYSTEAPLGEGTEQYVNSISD

[5] = Trypanosoma cruzi growth suppression in host cells – NIH3T3 host cells, beta-gal luminescence, confirmation (AID 2044); assay type: functional, cell-based;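 note: intracellular parasites grown in NIH/3T3 mouse fibroblasts as host cells; luminescent beta-galactosidase reporter signal from transgenic T. cruzi replicating inside host cells; inhibitors lower the luminescence signal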
[6] = NIH3T3 cell viability loss – ATP luminescence, mouse fibroblasts, counter-screen, dose response (AID 2010); assay type: functional, cell-based;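 note: cells exposed to compound for about 90 hours before reading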
[7] = target: T5, Microphthalmia-associated transcription factor (Homo sapiens, UniProt O75030); assay: reducers of TRPM1 reporter luminescence, concentration series – cell-based, SK-MEL-5, cherry-picked, set 3, MITF inhibitor project, dose response (AID 493073); assay type: functional;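 note: SK-MEL-5 melanoma cells with luciferase driven by the MITF target TRPM1 promoter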
T5 sequence (O75030 whole entry): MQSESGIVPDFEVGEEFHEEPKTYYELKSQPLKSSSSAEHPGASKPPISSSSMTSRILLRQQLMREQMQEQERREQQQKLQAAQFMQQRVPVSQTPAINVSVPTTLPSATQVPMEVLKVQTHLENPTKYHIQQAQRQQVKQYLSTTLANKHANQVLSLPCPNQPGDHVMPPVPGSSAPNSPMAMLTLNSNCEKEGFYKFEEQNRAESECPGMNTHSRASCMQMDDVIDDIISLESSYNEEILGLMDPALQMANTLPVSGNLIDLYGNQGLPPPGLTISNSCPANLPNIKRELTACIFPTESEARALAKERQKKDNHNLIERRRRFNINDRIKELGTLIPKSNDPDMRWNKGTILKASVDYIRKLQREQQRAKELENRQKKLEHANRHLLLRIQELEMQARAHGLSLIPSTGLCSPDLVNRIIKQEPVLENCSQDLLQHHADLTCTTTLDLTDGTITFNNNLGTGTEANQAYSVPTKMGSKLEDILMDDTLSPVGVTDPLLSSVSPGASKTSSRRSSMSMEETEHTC

[8] = target: V-type proton ATPase subunit c' (Saccharomyces cerevisiae S288c, UniProt P32842); assay: Dose Response with BCECF Assay for V-ATPase inhibitors that increase vacuolar pH, Powder Set 1.; assay type: functional; conditions: read-out: EC50_MICROM
Chain of V-type proton ATPase subunit c' (P32842 whole entry): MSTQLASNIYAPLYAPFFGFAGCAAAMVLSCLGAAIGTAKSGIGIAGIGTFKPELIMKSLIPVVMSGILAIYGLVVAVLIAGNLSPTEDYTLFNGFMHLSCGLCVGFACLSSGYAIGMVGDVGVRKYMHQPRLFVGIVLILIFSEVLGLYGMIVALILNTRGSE

Compound	IC50 [1]	IC50 [2]	IC50 [3]	IC50 [4]	EC50 [5]	EC50 [6]	AC50 [7]	EC50 [8]
O=C(Cc1ccc(C(F)(F)F)cc1[N+](=O)[O-])N/N=C/c1c[nH]c2ccccc12	> 99 µM (inactive)	> 99 µM (inactive)	> 99 µM (inactive)	> 99 µM (inactive)	–	–	–	–
COc1ccc2nc(N3CCN(C(=O)c4ccc([N+](=O)[O-])o4)CC3)sc2c1	–	–	–	–	0.434 µM (active)	39.5 µM (active)	5.81 µM (active)	0.728 µM (active)

Source: ChEMBL document CHEMBL1201862, “PubChem BioAssay data set” (2004)
